According to the Deep4Chem optical property database:
Each block holds one molecule with its values, some of them ahead of it.

Test: solvent given as SMILES

SMILES: CCCCCCCCCc1csc2cc(-c3cc(-c4cc5scc(CCCCCCCCC)c5s4)c4ccc5c(-c6cc7scc(CCCCCCCCC)c7s6)cc(-c6cc7scc(CCCCCCCCC)c7s6)c6ccc3c4c65)sc12
absorption maximum (in ClC(Cl)Cl): 429 nm

SMILES: CC1(C)CC(/C=C/c2ccc(-n3ccnc3)cc2)=CC(=C(C#N)C#N)C1
absorption maximum (in C1CCOC1): 398 nm | absorption maximum (in CC#N): 390 nm | absorption maximum (in CCO): 391 nm | absorption maximum (in CCOC(C)=O): 390 nm | absorption maximum (in ClCCl): 393 nm | absorption maximum (in c1ccccc1): 397 nm

SMILES: CC[N+]1(CC)CN2C(=N1)C(C(=O)O)=Cc1ccc(C)cc12
absorption maximum (in O): 370 nm

SMILES: CC1=CC(C)=[N+]2C1=C(C)c1cccn1[B-]2(F)F
absorption maximum (in CCCCCC): 492 nm | absorption maximum (in CO): 486 nm | absorption maximum (in ClCCl): 488 nm

SMILES: Clc1cnc2nn3ccccc3c2n1
absorption maximum (in C1CCOC1): 404 nm

SMILES: COc1cc2sc3nc(-c4ccccc4OC)sc3c2cc1OC
absorption maximum (in CS(C)=O): 365 nm

SMILES: Cc1ccc(C2=C3C=CC4=[N+]3[P-](=O)(=O)n3c2ccc3-c2ccc([nH]2)/C(c2ccc(C)cc2)=c2/cc/c(o2)=C(\c2ccc(C)cc2)c2ccc4[nH]2)cc1
absorption maximum (in ClC(Cl)Cl): 708 nm

SMILES: Cc1ccc(-n2c(-c3cccc4cc[nH]c34)nc3c4ccccc4c4ccccc4c32)cc1
absorption maximum (in Cc1ccccc1): 354 nm

SMILES: O=Cc1c(O)c(-c2nc3ccccc3s2)cc2ccccc12
absorption maximum (in C1CCOC1): 352 nm | absorption maximum (in CC#N): 349 nm | absorption maximum (in CC(C)=O): 352 nm | absorption maximum (in CCO): 349 nm | absorption maximum (in CCOC(C)=O): 352 nm | absorption maximum (in CN(C)C=O): 346 nm | absorption maximum (in CO): 349 nm | absorption maximum (in Cc1ccccc1): 358 nm | absorption maximum (in ClC(Cl)Cl): 352 nm | absorption maximum (in ClCCl): 352 nm

SMILES: CC1=CC2=Nc3nc(C)[n+](C)cc3CN2C=C1
absorption maximum (in CC#N): 403 nm | absorption maximum (in CCO): 398 nm | absorption maximum (in O): 392 nm

SMILES: CC1(C)CC(NCc2ccc3ccc4cccc5ccc2c3c45)CC(C)(C)N1
absorption maximum (in C1CCCCC1): 374 nm | absorption maximum (in CC#N): 374 nm | absorption maximum (in CO): 374 nm | absorption maximum (in ClC(Cl)Cl): 389 nm

SMILES: Cc1c2ccc(=[N+]3CCCCC3)cc-2oc2cc(N3CCCCC3)ccc12
absorption maximum (in ClCCl): 555 nm

SMILES: COc1ccc(/C=C/c2ccc(-c3nnc(-c4ccc(-c5cc6ccccc6s5)cc4)o3)cc2)cc1
absorption maximum (in CC#N): 337 nm | absorption maximum (in CC(C)=O): 341 nm | absorption maximum (in CCCCCCCC): 337 nm | absorption maximum (in CCCCCCCCCCO): 346 nm | absorption maximum (in CCCCCCCCO): 347 nm | absorption maximum (in CCCCCO): 346 nm | absorption maximum (in CCCO): 345 nm | absorption maximum (in CN(C)C=O): 351 nm | absorption maximum (in CO): 345 nm | absorption maximum (in CS(C)=O): 348 nm

SMILES: O=S(=O)([O-])c1ccc2c(O)cc(S(=O)(=O)[O-])cc2c1
absorption maximum (in O): 295 nm

SMILES: C=CCNc1ccc2c(ccc3oc4cc(=[N+](C)C)ccc-4nc32)c1
absorption maximum (in CC#N): 597 nm | absorption maximum (in CCO): 601 nm | absorption maximum (in ClCCl): 610 nm | absorption maximum (in O): 579 nm

SMILES: c1ccc(-c2nnc(-c3cc(-c4nnc(-c5ccccc5)o4)c(-n4c5ccccc5c5ccccc54)cc3-n3c4ccccc4c4ccccc43)o2)cc1
absorption maximum (in Cc1ccccc1): 370 nm

SMILES: CCCCn1cc(/C=C/c2cc(=O)oc3cc(C)ccc23)c2ccccc21
absorption maximum (in CS(C)=O): 414 nm | absorption maximum (in ClC(Cl)Cl): 398 nm

SMILES: CCCCn1c(-c2ccc(-c3ccc(-c4ccc(-c5n(CCCC)c6cc(C)ccc6[n+]5CCCC)cc4)cc3)cc2)[n+](CCCC)c2ccc(C)cc21
absorption maximum (in O): 304 nm

SMILES: c1ccc(-c2nc3ccccc3nc2-c2cc(-c3nc4ccccc4nc3-c3ccccc3)cc(-n3c4ccccc4c4ccccc43)c2)cc1
absorption maximum (in Cc1ccccc1): 340 nm

SMILES: CC1(C)CC(=O)c2cc(F)cc(F)c2N1
absorption maximum (in CC#N): 377 nm | absorption maximum (in CCO): 386 nm

SMILES: CCN(CC)/C(C)=N\c1ccc2c3c(cccc13)C(=O)c1ccccc1-2
absorption maximum (in C1CCOC1): 472 nm | absorption maximum (in CCCCCC): 444 nm | absorption maximum (in CCO): 473 nm | absorption maximum (in CCOC(C)=O): 463 nm | absorption maximum (in CN(C)C=O): 479 nm | absorption maximum (in CO): 472 nm | absorption maximum (in Cc1ccccc1): 461 nm | absorption maximum (in ClC(Cl)(Cl)Cl): 467 nm | absorption maximum (in ClC(Cl)Cl): 467 nm | absorption maximum (in ClCCl): 467 nm | absorption maximum (in c1ccccc1): 462 nm

SMILES: CC(C)(C)c1ccc2c(c1)c1cc(C(C)(C)C)ccc1n2-c1ccc(C#Cc2ccc3c4ccc(C#Cc5ccc(/C=C(/C#N)C(=O)O)cc5)cc4n(-c4ccc(C(F)(F)F)cc4)c3c2)cc1
absorption maximum (in ClCCl): 386 nm

SMILES: CC(C)[Si](C#Cc1c2ccccc2c(C#C[Si](C(C)C)(C(C)C)C(C)C)c2nc3cc4c(cc3nc12)C1c2ccccc2C4c2ccccc21)(C(C)C)C(C)C
absorption maximum (in CCCCCC): 558 nm | absorption maximum (in ClCCl): 562 nm

SMILES: CCCC(=O)c1c2c(c(C(=O)CCC)c3c1OC(CC(=O)OC)(C(=O)OC)O3)OCO2
absorption maximum (in CC#N): 423 nm | absorption maximum (in CCCCCC): 413 nm | absorption maximum (in CCO): 428 nm | absorption maximum (in CO): 428 nm | absorption maximum (in ClCCl): 425 nm

SMILES: O=c1cc2c(-c3c(O)c4cccc5ccc6oc(=O)cc3c6c54)c(O)c3cccc4ccc(o1)c2c43
absorption maximum (in CC1CCCO1): 486 nm

Other lines, results leading:

absorption maximum (in ClCCl): 642 nm
SMILES: CC(C)[Si](C#Cc1c2cc3ccccc3cc2c(C#C[Si](C)(C)C)c2cc3ccccc3cc12)(C(C)C)C(C)C

absorption maximum (in CO): 295 nm
SMILES: Oc1ccc(-c2nc(-c3ccccc3)c(-c3ccccc3)[nH]2)cc1

absorption maximum (in O): 650 nm
SMILES: CC1=CC(C)=[N+]2C1=C(c1ccc(O)cc1)c1c(C)cc(/C=C/C=C3/N(C)c4ccccc4C3(C)C)n1[B-]2(F)F

absorption maximum (in C1COCCO1): 411 nm | absorption maximum (in CC#N): 408 nm | absorption maximum (in CCO): 411 nm | absorption maximum (in CCOC(C)=O): 408 nm | absorption maximum (in O): 408 nm
SMILES: CN1C(=O)/C(=C/c2ccncc2)N=C1/C=C/c1ccccc1

absorption maximum (in CC#N): 442 nm | absorption maximum (in CCCCCC): 434 nm | absorption maximum (in CCCCOCCCC): 437 nm | absorption maximum (in CCOC(C)=O): 439 nm | absorption maximum (in CN(C)C=O): 445 nm
SMILES: O=c1c2ccccc2n2c3ccc(-c4ccccc4)cc3c(=O)c3cccc1c32

absorption maximum (in CC#N): 342 nm | absorption maximum (in CCCCCC): 347 nm | absorption maximum (in CO): 364 nm | absorption maximum (in CS(C)=O): 351 nm | absorption maximum (in ClC(Cl)Cl): 343 nm
SMILES: C/C(=N\Nc1ccc(C#N)cc1)c1ccccn1

absorption maximum (in ClC(Cl)Cl): 346 nm
SMILES: N#Cc1c(C#N)c2ccccc2c2ccccc12

absorption maximum (in C1CCCCC1): 325 nm | absorption maximum (in CO): 330 nm
SMILES: Cc1ccc(/C=C(\c2ccccc2)c2nc3ccccc3o2)cc1

absorption maximum (in C1CCCCC1): 430 nm | absorption maximum (in CO): 450 nm
SMILES: CN(C)c1ccc(/C=C(\C#N)c2nc3ccccc3s2)cc1

absorption maximum (in O): 396 nm
SMILES: c1ccc2c[n+]3ccccc3cc2c1

absorption maximum (in CO): 295 nm
SMILES: COc1ccc(-c2nc(-c3ccc(OC)cc3)c(-c3ccc(OC)cc3)[nH]2)cc1

absorption maximum (in C1CCOC1): 346 nm
SMILES: N#Cc1c(N2CCCCC2)cc(-c2ccc3ccc4cccc5ccc2c3c45)c2c1-c1ccccc1C2

absorption maximum (in CC#N): 365 nm
SMILES: N#C/C(=C\c1ccc(Cl)cc1)c1nc(-c2ccccc2)c(-c2ccccc2)s1

absorption maximum (in CCO): 645 nm | absorption maximum (in CO): 642 nm | absorption maximum (in CS(C)=O): 653 nm | absorption maximum (in O): 639 nm
SMILES: CN1/C(=C/C=C(/C=C/c2sc3ccccc3[n+]2C)c2cccc(C(F)(F)F)c2)Sc2ccccc21

absorption maximum (in C1CCCCC1): 295 nm
SMILES: c1cc(-c2ccc3c(c2)CCCO3)ccc1-c1ccc2c(c1)CCCO2

absorption maximum (in ClCCl): 336 nm
SMILES: COC(=O)c1ccc(C(=O)NC(C)(C)C)c2c1ccc1c3ccccc3c3ccccc3c12

absorption maximum (in ClCCl): 336 nm
SMILES: FC(F)(F)c1ccc(C2=Cc3ccccc3[Si]2(c2ccccc2)c2ccccc2)cc1
